Assay results: patent US9931347B2, “Pharmaceutical compound” (IOmet Pharma Ltd., priority 2013, dated 2018)

How the values were obtained:
[1] = target: T1, IDO (SKOV3 human ovarian adenocarcinoma cells, IFN-γ induced) (Homo sapiens, UniProt P14902); assay: SKOV3 Kynurenine cell based assay; settings: IDO induced by 500 ng/ml IFN-γ, 500 μM L-tryptophan, 48 hours
T1 construct: IDO expression was induced in the SKOV3 cells by the addition of 500 ng/ml IFN-γ; endogenous in cells; host or cells: SKOV3 human ovarian adenocarcinoma cells, induced with IFN-γ
T1 sequence (P14902 whole entry): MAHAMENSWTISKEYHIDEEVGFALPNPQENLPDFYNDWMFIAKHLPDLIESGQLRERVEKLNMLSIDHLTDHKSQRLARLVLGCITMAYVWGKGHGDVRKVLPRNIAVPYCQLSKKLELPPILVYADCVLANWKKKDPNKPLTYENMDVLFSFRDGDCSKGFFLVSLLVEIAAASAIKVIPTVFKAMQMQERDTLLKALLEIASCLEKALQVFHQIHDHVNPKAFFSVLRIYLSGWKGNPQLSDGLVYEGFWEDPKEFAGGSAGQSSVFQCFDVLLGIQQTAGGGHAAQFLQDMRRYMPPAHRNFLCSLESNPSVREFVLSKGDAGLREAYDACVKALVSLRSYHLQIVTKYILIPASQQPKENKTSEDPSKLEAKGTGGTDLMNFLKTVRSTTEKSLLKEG
How it was run: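 IFN-γ (500 ng/ml) induced IDO in SKOV3 cells, seeded at 40,000/well in phenol red-free RPMI with 10% FCS, 2 mM L-glutamine and 500 μM L-tryptophan. Cells were incubated with or without compound at 37° C for 48 h. Supernatant kynurenine was detected with Ehrlich's reagent.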

[2] = target: Recombinant human IDO (Homo sapiens, UniProt P14902); assay: hIDO biochemical coupled assay; settings: 45 μM L-tryptophan, coupled with kynurenine formamidase
Recombinant human IDO, sequence (P14902 whole entry): as above
How it was run: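 Recombinant human IDO incubated in 50 mM KPO4 (pH 7.0), 0.5 mM EGTA, 0.5 mM EDTA, 0.05% Triton X100, 20 mM ascorbate, 10 μM methylene blue, 500 U/ml catalase and 50 μg/ml kynurenine formamidase. N-formylkynurenine converted to kynurenine, quantified by fluorescence after Ehrlich's reagent.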

[3] = target: T2, TDO (A172 human glioblastoma cells) (Homo sapiens, UniProt P48775); assay: A172 Kynurenine cell based assay; settings: 500 μM L-tryptophan, 48 hours, kynurenine by Erhlich's reagent
T2 construct: This assay utilised cancer cells which expressed either TDO or IDO; endogenous in cells; host or cells: A172 human glioblastoma cells
T2 sequence (P48775 whole entry): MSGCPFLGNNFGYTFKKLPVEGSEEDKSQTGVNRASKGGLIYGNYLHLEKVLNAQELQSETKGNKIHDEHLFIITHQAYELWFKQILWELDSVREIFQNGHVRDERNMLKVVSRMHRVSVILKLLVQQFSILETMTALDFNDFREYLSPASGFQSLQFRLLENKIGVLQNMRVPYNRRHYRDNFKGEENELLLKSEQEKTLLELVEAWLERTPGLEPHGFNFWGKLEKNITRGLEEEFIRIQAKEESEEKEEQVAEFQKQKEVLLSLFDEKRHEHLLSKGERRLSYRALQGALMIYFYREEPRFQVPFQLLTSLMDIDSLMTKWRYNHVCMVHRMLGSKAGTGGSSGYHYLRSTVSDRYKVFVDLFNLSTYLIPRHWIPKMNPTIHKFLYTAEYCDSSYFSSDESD
How it was run: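 A172 glioblastoma cells (30,000/well) cultured at 37° C. in phenol red-free RPMI with 10% FCS, 2 mM L-glutamine and 500 μM L-tryptophan, with or without test compound. After 48 hours, kynurenine in the supernatant was read with Erhlich's reagent (5 min) as absorbance at 490 nm.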

[4] = target: Recombinant human TDO (Homo sapiens, UniProt P48775); assay: hTDO biochemical coupled assay; settings: 330 μM L-tryptophan, coupled with kynurenine formamidase
Recombinant human TDO, sequence (P48775 whole entry): as above
How it was run: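 Recombinant human TDO with 330 μM L-tryptophan in 50 mM KPO4 pH 7.0 containing EGTA, EDTA, Triton X100, ascorbate, methylene blue, catalase and kynurenine formamidase (KynB), 17 min at room temperature. Stopped with Ehrlich's reagent, 5 min, then kynurenine fluorescence read (Ex475, Em530).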

Structure (SMILES)	SKOV3 Kynurenine cell based assay pIC50 [1]	hIDO biocehmical assay pIC50 [2]	A172 Kynurenine cell based assay pIC50 [3]	hTDO biochemical assay pIC50 [4]
Cc1ccc2[nH]cc(C3=CCN(S(C)(=O)=O)CC3)c2c1 [Compound 92]	+ (+ = pIC50 4.00-4.99)	+− (+− = pIC50 <4.00)	++ (++ = pIC50 5.00-5.99)	+ (+ = pIC50 4.00-4.99)
COc1cccc2c(C3=CCN(S(C)(=O)=O)CC3)c[nH]c12 [Compound 93]	+− (+− = pIC50 <4.00)	+− (+− = pIC50 <4.00)	+− (+− = pIC50 <4.00)	+ (+ = pIC50 4.00-4.99)
CS(=O)(=O)N1CCC(c2c[nH]c3cccc(F)c23)CC1 [Compound 95]	+− (+− = pIC50 <4.00)	+− (+− = pIC50 <4.00)	+ (+ = pIC50 4.00-4.99)	+− (+− = pIC50 <4.00)
CC(=O)N1CCC(c2c[nH]c3ncccc23)CC1 [Compound 99]	+ (+ = pIC50 4.00-4.99)	+− (+− = pIC50 <4.00)	+− (+− = pIC50 <4.00)	+− (+− = pIC50 <4.00)
CS(=O)(=O)N1CC=C(c2c[nH]c3c(F)cccc23)CC1 [Compound 100]	+− (+− = pIC50 <4.00)	+− (+− = pIC50 <4.00)	+ (+ = pIC50 4.00-4.99)	+− (+− = pIC50 <4.00)
CC(=O)N1CC=C(c2c(C)[nH]c3ccccc23)CC1 [Compound 104]	+ (+ = pIC50 4.00-4.99)	+− (+− = pIC50 <4.00)	+− (+− = pIC50 <4.00)	+ (+ = pIC50 4.00-4.99)
CC(C)C(=O)N1CCC(c2c[nH]c3ccccc23)CC1 [Compound 106]	+− (+− = pIC50 <4.00)	+− (+− = pIC50 <4.00)	+ (+ = pIC50 4.00-4.99)	+− (+− = pIC50 <4.00)
NS(=O)(=O)N1CC=C(c2c[nH]c3ccccc23)CC1 [Compound 162]	+− (+− = pIC50 <4.00)	+− (+− = pIC50 <4.00)	+++ (+++ = pIC50 ≥6.00)	+++ (+++ = pIC50 ≥6.00)
CC(C)OCC(=O)N1CC=C(c2c[nH]c3cc(F)ccc23)CC1 [Compound 163]	+ (+ = pIC50 4.00-4.99)	+− (+− = pIC50 <4.00)	+++ (+++ = pIC50 ≥6.00)	++ (++ = pIC50 5.00-5.99)
NS(=O)(=O)N1CC=C(c2c[nH]c3cc(F)ccc23)CC1 [Compound 164]	+− (+− = pIC50 <4.00)	+− (+− = pIC50 <4.00)	+++ (+++ = pIC50 ≥6.00)	+++ (+++ = pIC50 ≥6.00)
CC(=O)N1CC=C(c2c[nH]c3cc(F)c(F)cc23)CC1 [Compound 167]	+ (+ = pIC50 4.00-4.99)	+− (+− = pIC50 <4.00)	++ (++ = pIC50 5.00-5.99)	++ (++ = pIC50 5.00-5.99)
CS(=O)(=O)N1CC=C(c2c[nH]c3cc(F)c(F)cc23)CC1 [Compound 168]	+ (+ = pIC50 4.00-4.99)	+− (+− = pIC50 <4.00)	+++ (+++ = pIC50 ≥6.00)	++ (++ = pIC50 5.00-5.99)
CS(=O)(=O)N1CCC(c2c[nH]c3ccncc23)CC1 [Compound 175]	+ (+ = pIC50 4.00-4.99)	+− (+− = pIC50 <4.00)	+ (+ = pIC50 4.00-4.99)	+− (+− = pIC50 <4.00)
CC(=O)N1CCC(C2CNc3cc(F)ccc32)CC1 (stereo not drawn) [Compound 179]	+− (+− = pIC50 <4.00)	+− (+− = pIC50 <4.00)	+ (+ = pIC50 4.00-4.99)	+− (+− = pIC50 <4.00)

Further lines, results first:

SKOV3 Kynurenine cell based assay pIC50 [1]	hIDO biocehmical assay pIC50 [2]	A172 Kynurenine cell based assay pIC50 [3]	hTDO biochemical assay pIC50 [4]	Structure (SMILES)
+ (+ = pIC50 4.00-4.99)	+− (+− = pIC50 <4.00)	+ (+ = pIC50 4.00-4.99)	++ (++ = pIC50 5.00-5.99)	CC(=O)N1CC=C(c2c[nH]c3ccc(C)cc23)CC1 [Compound 89]
+ (+ = pIC50 4.00-4.99)	+− (+− = pIC50 <4.00)	++ (++ = pIC50 5.00-5.99)	++ (++ = pIC50 5.00-5.99)	CS(=O)(=O)N1CC=C(c2c[nH]c3ccc(F)cc23)CC1 [Compound 90]
+− (+− = pIC50 <4.00)	+− (+− = pIC50 <4.00)	+ (+ = pIC50 4.00-4.99)	+ (+ = pIC50 4.00-4.99)	CC(=O)N1CC=C(c2c[nH]c3c(F)cccc23)CC1 [Compound 94]
+− (+− = pIC50 <4.00)	+− (+− = pIC50 <4.00)	+ (+ = pIC50 4.00-4.99)	+− (+− = pIC50 <4.00)	CC(=O)N1CCC(c2c[nH]c3cccc(F)c23)CC1 [Compound 98]
+− (+− = pIC50 <4.00)	+− (+− = pIC50 <4.00)	+− (+− = pIC50 <4.00)	+ (+ = pIC50 4.00-4.99)	CC(=O)N1CC=C(c2n[nH]c3ccccc23)CC1 [Compound 102]
+ (+ = pIC50 4.00-4.99)	+− (+− = pIC50 <4.00)	+++ (+++ = pIC50 ≥6.00)	++ (++ = pIC50 5.00-5.99)	CS(=O)(=O)N1CC=C(c2c[nH]c3cc(F)ccc23)CC1 [Compound 103]
+ (+ = pIC50 4.00-4.99)	+− (+− = pIC50 <4.00)	+− (+− = pIC50 <4.00)	+ (+ = pIC50 4.00-4.99)	CC(=O)N1CC=C(c2c[nH]c3ncccc23)CC1 [Compound 105]
+ (+ = pIC50 4.00-4.99)	+− (+− = pIC50 <4.00)	++ (++ = pIC50 5.00-5.99)	+ (+ = pIC50 4.00-4.99)	CC(=O)N1CC=C(c2c[nH]c3ccc(Cl)cc23)CC1 [Compound 165]
+ (+ = pIC50 4.00-4.99)	+− (+− = pIC50 <4.00)	++ (++ = pIC50 5.00-5.99)	+ (+ = pIC50 4.00-4.99)	CS(=O)(=O)N1CC=C(c2c[nH]c3ccc(Cl)cc23)CC1 [Compound 166]
+ (+ = pIC50 4.00-4.99)	+− (+− = pIC50 <4.00)	+ (+ = pIC50 4.00-4.99)	+− (+− = pIC50 <4.00)	CCn1ncc(S(=O)(=O)N2CCC3(CC2)C(=O)Nc2ccccc23)c1C [Compound 173]
+ (+ = pIC50 4.00-4.99)	+− (+− = pIC50 <4.00)	+ (+ = pIC50 4.00-4.99)	+− (+− = pIC50 <4.00)	CC(=O)N1CCC(c2c[nH]c3ccncc23)CC1 [Compound 174]
+ (+ = pIC50 4.00-4.99)	+− (+− = pIC50 <4.00)	+ (+ = pIC50 4.00-4.99)	+− (+− = pIC50 <4.00)	CS(=O)(=O)N1CCC(c2c[nH]c3cnccc23)CC1 [Compound 176]
++ (++ = pIC50 5.00-5.99)	+− (+− = pIC50 <4.00)	+− (+− = pIC50 <4.00)	+− (+− = pIC50 <4.00)	CS(=O)(=O)N1CCC(C2C(=O)Nc3cc(F)ccc32)CC1 (stereo not drawn) [Compound 178]
